Results as given in ChEMBL document CHEMBL1629559, “Real-time PCR detection of gyrA and parC mutations in Streptococcus pneumoniae” (2008).
In brackets after ≈: the same amount, converted by molar mass.

Tests used:
Streptococcus pneumoniae [1] = test: Antibacterial activity against Streptococcus pneumoniae U2A1693 harboring parC Asp83Asn mutant gene by agar disk diffusion method; assay type: functional
Streptococcus pneumoniae [2] = test: Antibacterial activity against Streptococcus pneumoniae CIP104485 by agar dilution method; assay type: functional; conditions: CIP1044
Streptococcus pneumoniae [3] = test: Antibacterial activity against Streptococcus pneumoniae U2A1050 harboring gyrA Ser81Phe mutant gene by agar dilution method; assay type: functional
Streptococcus pneumoniae [4] = test: Antibacterial activity against Streptococcus pneumoniae R6 by agar disk diffusion method; assay type: functional
Streptococcus pneumoniae [5] = test: Antibacterial activity against Streptococcus pneumoniae U2A1686 harboring gyrA Glu85Lys mutant gene by agar dilution method; assay type: functional
Streptococcus pneumoniae [6] = test: Antibacterial activity against Streptococcus pneumoniae R6 Tr6 harboring gyrA Ser81Phe mutant gene by agar disk diffusion method; assay type: functional
Streptococcus pneumoniae [7] = test: Antibacterial activity against Streptococcus pneumoniae R6 Tr10 harboring gyrA Ser81Tyr parC Ser79Tyr mutant gene by agar dilution method; assay type: functional
Streptococcus pneumoniae [8] = test: Antibacterial activity against Streptococcus pneumoniae U2A1056 harboring gyrA Ser81Tyr parC Asp83His mutant gene by agar disk diffusion method; assay type: functional
Streptococcus pneumoniae [9] = test: Antibacterial activity against Streptococcus pneumoniae U2A1413 harboring parC Ser79Tyr mutant gene by agar dilution method; assay type: functional
Streptococcus pneumoniae [10] = test: Antibacterial activity against Streptococcus pneumoniae U2A1056 harboring gyrA Ser81Tyr parC Asp83His mutant gene by agar dilution method; assay type: functional
Streptococcus pneumoniae [11] = test: Antibacterial activity against Streptococcus pneumoniae CP1000 by agar dilution method; assay type: functional
Streptococcus pneumoniae [12] = test: Antibacterial activity against Streptococcus pneumoniae CP1000 by agar disk diffusion method; assay type: functional
Streptococcus pneumoniae [13] = test: Antibacterial activity against Streptococcus pneumoniae U2A1414 harboring gyrA Glu85Lys parC Ser79Phe mutant gene by agar dilution method; assay type: functional
Streptococcus pneumoniae [14] = test: Antibacterial activity against Streptococcus pneumoniae U2A1413 harboring parC Ser79Tyr mutant gene by agar disk diffusion method; assay type: functional
Streptococcus pneumoniae [15] = test: Antibacterial activity against Streptococcus pneumoniae U2A1051 harboring gyrA Ser81Tyr mutant gene by agar dilution method; assay type: functional
Streptococcus pneumoniae [16] = test: Antibacterial activity against Streptococcus pneumoniae U2A1060 harboring gyrA Ser81Phe parC Asp83His mutant gene by agar dilution method; assay type: functional
Streptococcus pneumoniae [17] = test: Antibacterial activity against Streptococcus pneumoniae H548 clinical isolate harboring gyrA Ser81Phe mutant gene by agar disk diffusion method; assay type: functional
Streptococcus pneumoniae [18] = test: Antibacterial activity against Streptococcus pneumoniae U2A1050 harboring gyrA Ser81Phe mutant gene by agar disk diffusion method; assay type: functional
Streptococcus pneumoniae [19] = test: Antibacterial activity against Streptococcus pneumoniae R6 Tr1 harboring parC Ser79Tyr mutant gene by agar dilution method; assay type: functional
Streptococcus pneumoniae [20] = test: Antibacterial activity against Streptococcus pneumoniae U2A1411 harboring parC Asp83Gly mutant gene by agar disk diffusion method; assay type: functional
Streptococcus pneumoniae [21] = test: Antibacterial activity against Streptococcus pneumoniae R6 Tr10 harboring gyrA Ser81Tyr parC Ser79Tyr mutant gene by agar disk diffusion method; assay type: functional
Streptococcus pneumoniae [22] = test: Antibacterial activity against Streptococcus pneumoniae R6 Tr6 harboring gyrA Ser81Phe mutant gene by agar dilution method; assay type: functional
Streptococcus pneumoniae [23] = test: Antibacterial activity against Streptococcus pneumoniae U2A1686 harboring gyrA Glu85Lys mutant gene by agar disk diffusion method; assay type: functional
Streptococcus pneumoniae [24] = test: Antibacterial activity against Streptococcus pneumoniae R6 by agar dilution method; assay type: functional
Streptococcus pneumoniae [25] = test: Antibacterial activity against Streptococcus pneumoniae U2A1414 harboring gyrA Glu85Lys parC Ser79Phe mutant gene by agar disk diffusion method; assay type: functional
Streptococcus pneumoniae [26] = test: Antibacterial activity against Streptococcus pneumoniae U2A1053 harboring parC Ser79Phe mutant gene by agar disk diffusion method; assay type: functional
Streptococcus pneumoniae [27] = test: Antibacterial activity against Streptococcus pneumoniae U2A1411 harboring parC Asp83Gly mutant gene by agar dilution method; assay type: functional
Streptococcus pneumoniae [28] = test: Antibacterial activity against Streptococcus pneumoniae U2A1266 harboring gyrA Ser81Cys mutant gene by agar dilution method; assay type: functional
Streptococcus pneumoniae [29] = test: Antibacterial activity against Streptococcus pneumoniae U2A1053 harboring parC Ser79Phe mutant gene by agar dilution method; assay type: functional
Streptococcus pneumoniae [30] = test: Antibacterial activity against Streptococcus pneumoniae CIP104485 by agar disk diffusion method; assay type: functional, CIP1044
Streptococcus pneumoniae [31] = test: Antibacterial activity against Streptococcus pneumoniae U2A1060 harboring gyrA Ser81Phe parC Asp83His mutant gene by agar disk diffusion method; assay type: functional
Streptococcus pneumoniae [32] = test: Antibacterial activity against Streptococcus pneumoniae H548 clinical isolate harboring gyrA Ser81Phe mutant gene by agar dilution method; assay type: functional
Streptococcus pneumoniae [33] = test: Antibacterial activity against Streptococcus pneumoniae U2A1266 harboring gyrA Ser81Cys mutant gene by agar disk diffusion method; assay type: functional
Streptococcus pneumoniae [34] = test: Antibacterial activity against Streptococcus pneumoniae U2A1051 harboring gyrA Ser81Tyr mutant gene by agar disk diffusion method; assay type: functional
Streptococcus pneumoniae [35] = test: Antibacterial activity against Streptococcus pneumoniae U2A1681 harboring parC Ser79Tyr Asp83Ala mutant gene by agar disk diffusion method; assay type: functional
Streptococcus pneumoniae [36] = test: Antibacterial activity against Streptococcus pneumoniae R6 Tr1 harboring parC Ser79Tyr mutant gene by agar disk diffusion method; assay type: functional
Streptococcus pneumoniae [37] = test: Antibacterial activity against Streptococcus pneumoniae U2A1693 harboring parC Asp83Asn mutant gene by agar dilution method; assay type: functional
Streptococcus pneumoniae [38] = test: Antibacterial activity against Streptococcus pneumoniae U2A1681 harboring parC Ser79Tyr Asp83Ala mutant gene by agar dilution method; assay type: functional

**Q.** How did the “diameter of the inhibition zone (DIZ)” value (Streptococcus pneumoniae [1]) turn out when `CCn1cc(C(=O)O)c(=O)c2cc(F)c(N3CCNCC3)cc21` [NORFLOXACIN] was run?
**A.** 6 mm

**Q.** And the MIC (Streptococcus pneumoniae [2])?
**A.** 4 mg/L (≈ 12.5 µM)

**Q.** And the MIC (Streptococcus pneumoniae [3])?
**A.** 8 mg/L (≈ 25.1 µM)

**Q.** What about the “diameter of the inhibition zone (DIZ)” value (Streptococcus pneumoniae [4]) of the same compound?
**A.** 19 mm

**Q.** And the MIC (Streptococcus pneumoniae [5])?
**A.** 4 mg/L (≈ 12.5 µM)

**Q.** What about the “diameter of the inhibition zone (DIZ)” value (Streptococcus pneumoniae [6]) of the same compound?
**A.** 18 mm

**Q.** What about the MIC (Streptococcus pneumoniae [7]) of the same compound?
**A.** 128 mg/L (≈ 401 µM)

**Q.** And the “diameter of the inhibition zone (DIZ)” value (Streptococcus pneumoniae [8])?
**A.** 6 mm

**Q.** What about the MIC (Streptococcus pneumoniae [9]) of the same compound?
**A.** 32 mg/L (≈ 100 µM)

**Q.** What about the MIC (Streptococcus pneumoniae [10]) of the same compound?
**A.** 128 mg/L (≈ 401 µM)

**Q.** And the MIC (Streptococcus pneumoniae [11])?
**A.** 4 mg/L (≈ 12.5 µM)

**Q.** What about the “diameter of the inhibition zone (DIZ)” value (Streptococcus pneumoniae [12]) of the same compound?
**A.** 21 mm

**Q.** What about the MIC (Streptococcus pneumoniae [13]) of the same compound?
**A.** 256 mg/L (≈ 802 µM)

**Q.** What about the “diameter of the inhibition zone (DIZ)” value (Streptococcus pneumoniae [14]) of the same compound?
**A.** 6 mm

**Q.** What about the MIC (Streptococcus pneumoniae [15]) of the same compound?
**A.** 8 mg/L (≈ 25.1 µM)

**Q.** And the MIC (Streptococcus pneumoniae [16])?
**A.** 256 mg/L (≈ 802 µM)

**Q.** What about the “diameter of the inhibition zone (DIZ)” value (Streptococcus pneumoniae [17]) of the same compound?
**A.** 6 mm

**Q.** What about the “diameter of the inhibition zone (DIZ)” value (Streptococcus pneumoniae [18]) of the same compound?
**A.** 16 mm

**Q.** What about the MIC (Streptococcus pneumoniae [19]) of the same compound?
**A.** 64 mg/L (≈ 200 µM)

**Q.** What about the “diameter of the inhibition zone (DIZ)” value (Streptococcus pneumoniae [20]) of the same compound?
**A.** 6 mm

**Q.** What about the “diameter of the inhibition zone (DIZ)” value (Streptococcus pneumoniae [21]) of the same compound?
**A.** 6 mm

**Q.** And the MIC (Streptococcus pneumoniae [22])?
**A.** 4 mg/L (≈ 12.5 µM)

**Q.** And the “diameter of the inhibition zone (DIZ)” value (Streptococcus pneumoniae [23])?
**A.** 22 mm

**Q.** And the MIC (Streptococcus pneumoniae [24])?
**A.** 4 mg/L (≈ 12.5 µM)

**Q.** What about the “diameter of the inhibition zone (DIZ)” value (Streptococcus pneumoniae [25]) of the same compound?
**A.** 6 mm

**Q.** What about the “diameter of the inhibition zone (DIZ)” value (Streptococcus pneumoniae [26]) of the same compound?
**A.** 6 mm

**Q.** And the MIC (Streptococcus pneumoniae [27])?
**A.** 256 mg/L (≈ 802 µM)

**Q.** And the MIC (Streptococcus pneumoniae [28])?
**A.** 8 mg/L (≈ 25.1 µM)

**Q.** What about the MIC (Streptococcus pneumoniae [29]) of the same compound?
**A.** 64 mg/L (≈ 200 µM)

**Q.** What about the “diameter of the inhibition zone (DIZ)” value (Streptococcus pneumoniae [30]) of the same compound?
**A.** 19 mm

**Q.** What about the “diameter of the inhibition zone (DIZ)” value (Streptococcus pneumoniae [31]) of the same compound?
**A.** 6 mm

**Q.** And the MIC (Streptococcus pneumoniae [32])?
**A.** 32 mg/L (≈ 100 µM)

**Q.** And the “diameter of the inhibition zone (DIZ)” value (Streptococcus pneumoniae [33])?
**A.** 13 mm

**Q.** What about the “diameter of the inhibition zone (DIZ)” value (Streptococcus pneumoniae [34]) of the same compound?
**A.** 18 mm

**Q.** And the “diameter of the inhibition zone (DIZ)” value (Streptococcus pneumoniae [35])?
**A.** 6 mm

**Q.** And the “diameter of the inhibition zone (DIZ)” value (Streptococcus pneumoniae [36])?
**A.** 6 mm

**Q.** What about the MIC (Streptococcus pneumoniae [37]) of the same compound?
**A.** 64 mg/L (≈ 200 µM)

**Q.** What about the MIC (Streptococcus pneumoniae [38]) of the same compound?
**A.** 256 mg/L (≈ 802 µM)
